The source made the active and inactive calls.
Experiments:
[1] = target: Lysosomal acid glucosylceramidase (Homo sapiens, UniProt P04062); experiment: Dose response cell-based high throughput screening assay to identify enhancers of beta-glucosidase activity. [Related pubchem assays: 784 ]; type: functional
cells = type: functional
Cytochrome P450 2D6 = Cytochrome P450 2D6 (Homo sapiens, UniProt P10635); experiment: qHTS Assay for Inhibitors and Substrates of Cytochrome P450 2D6. [Related pubchem assays: 410 ]; type: ADME; details: read-out: Potency
Cytochrome P450 2D6, sequence (P10635 whole entry): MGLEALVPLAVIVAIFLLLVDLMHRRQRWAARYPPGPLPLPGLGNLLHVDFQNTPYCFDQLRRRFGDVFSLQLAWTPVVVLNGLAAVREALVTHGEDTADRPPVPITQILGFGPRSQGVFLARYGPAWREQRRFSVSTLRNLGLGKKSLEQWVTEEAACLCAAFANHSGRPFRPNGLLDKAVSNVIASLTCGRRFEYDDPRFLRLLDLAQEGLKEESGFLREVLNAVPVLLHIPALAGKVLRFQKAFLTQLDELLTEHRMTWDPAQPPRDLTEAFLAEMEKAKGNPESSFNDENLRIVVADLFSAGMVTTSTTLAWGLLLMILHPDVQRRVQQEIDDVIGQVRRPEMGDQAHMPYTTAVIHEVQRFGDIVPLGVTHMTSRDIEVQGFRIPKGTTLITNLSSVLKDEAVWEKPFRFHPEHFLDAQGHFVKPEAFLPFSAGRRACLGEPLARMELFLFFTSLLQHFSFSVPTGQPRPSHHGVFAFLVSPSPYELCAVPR

Bcl-2-like protein 10 = Bcl-2-like protein 10 (Homo sapiens, UniProt Q9HD36); experiment: Concentration-response of Bcl-B inhibitors by biochemical FP with TR3 (AID 1243); type: functional
Bcl-2-like protein 10, sequence (Q9HD36 whole entry): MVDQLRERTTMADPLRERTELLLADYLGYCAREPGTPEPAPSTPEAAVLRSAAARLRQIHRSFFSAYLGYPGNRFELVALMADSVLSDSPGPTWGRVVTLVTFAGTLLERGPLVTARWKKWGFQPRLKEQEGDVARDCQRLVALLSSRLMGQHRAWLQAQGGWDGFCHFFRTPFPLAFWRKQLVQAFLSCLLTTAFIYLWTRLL

HEK293 = experiment: Fluorescence-based counterscreen for potentiators or agonists of NPY-Y2: cell-based high-throughput dose response assay to identify inhibitors of cyclic nucleotide gated ion channel (CNGC) activity. In this assay, the parental HEK293 cell line transfected with a cyclic-nucleotide gated ion channel (CNGC)-based cAMP sensor is used to measure inhibition of isoproterenol-induced CNGC activity by test compound.; type: functional; details: Homo sapiens;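 further: stimulus is 1 µM isoproterenol at EC100 plus PDE inhibitor Ro 20-1724 at 25 µM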
[2] = target: Neuropeptide Y receptor type 2 (Homo sapiens, UniProt P49146); experiment: Fluorescence-based cell-based high-throughput dose response assay for agonists of NPY-Y2. [Related pubchem assays: 1703 (Screening assay (CNGC inhibitors).), 1359 (Screening assay (NPY-Y2 potentiators or agonists).), 1304 (Screening assay (NPY-Y1 potentiators or agonists).), 1710 (Screening assay (NPY-Y2 agonists).), 1791 (Summary AID.)]; type: functional
Neuropeptide Y receptor type 2, sequence (P49146 whole entry): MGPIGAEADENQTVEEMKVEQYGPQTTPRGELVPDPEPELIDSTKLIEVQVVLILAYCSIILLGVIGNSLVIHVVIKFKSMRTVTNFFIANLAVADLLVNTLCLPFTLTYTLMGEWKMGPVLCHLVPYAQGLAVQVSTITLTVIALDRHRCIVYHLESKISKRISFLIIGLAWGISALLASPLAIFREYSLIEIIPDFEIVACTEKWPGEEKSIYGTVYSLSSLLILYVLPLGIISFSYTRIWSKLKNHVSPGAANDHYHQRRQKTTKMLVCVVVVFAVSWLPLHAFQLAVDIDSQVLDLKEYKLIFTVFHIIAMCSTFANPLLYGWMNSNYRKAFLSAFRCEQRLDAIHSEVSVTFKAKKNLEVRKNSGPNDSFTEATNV

[3] = target: Neuropeptide Y receptor type 1 (Homo sapiens, UniProt P25929); experiment: Fluorescence-based counterscreen for agonists of NPY-Y2: cell-based high-throughput dose response assay for agonists of NPY-Y1.; type: functional
Neuropeptide Y receptor type 1, sequence (P25929 whole entry): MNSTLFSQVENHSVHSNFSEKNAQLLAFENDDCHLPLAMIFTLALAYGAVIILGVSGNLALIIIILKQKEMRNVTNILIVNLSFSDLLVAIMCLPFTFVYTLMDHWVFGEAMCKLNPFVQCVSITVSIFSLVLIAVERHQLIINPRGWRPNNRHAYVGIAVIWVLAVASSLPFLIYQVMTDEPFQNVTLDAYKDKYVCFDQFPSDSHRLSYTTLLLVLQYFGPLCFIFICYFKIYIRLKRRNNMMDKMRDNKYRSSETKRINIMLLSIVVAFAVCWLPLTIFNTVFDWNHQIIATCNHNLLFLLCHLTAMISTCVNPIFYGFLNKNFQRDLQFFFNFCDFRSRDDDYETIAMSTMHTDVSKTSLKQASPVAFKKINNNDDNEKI

[4] = target: T1, Heat shock factor protein 1 (Mus musculus, UniProt P38532); experiment: enhancement of HSF1-driven luciferase signal – cell-based, NIH3T3, luminescence, dose retest, confirmation (AID 435004); type: functional;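 further: stress induced by proteasome inhibitor MG132 added 30 min after compound; luciferase reporter driven by HSF1 response element in NIH3T3 cells; actives raise luminescence as potentiators of the MG132 stress response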
T1 sequence (P38532 whole entry): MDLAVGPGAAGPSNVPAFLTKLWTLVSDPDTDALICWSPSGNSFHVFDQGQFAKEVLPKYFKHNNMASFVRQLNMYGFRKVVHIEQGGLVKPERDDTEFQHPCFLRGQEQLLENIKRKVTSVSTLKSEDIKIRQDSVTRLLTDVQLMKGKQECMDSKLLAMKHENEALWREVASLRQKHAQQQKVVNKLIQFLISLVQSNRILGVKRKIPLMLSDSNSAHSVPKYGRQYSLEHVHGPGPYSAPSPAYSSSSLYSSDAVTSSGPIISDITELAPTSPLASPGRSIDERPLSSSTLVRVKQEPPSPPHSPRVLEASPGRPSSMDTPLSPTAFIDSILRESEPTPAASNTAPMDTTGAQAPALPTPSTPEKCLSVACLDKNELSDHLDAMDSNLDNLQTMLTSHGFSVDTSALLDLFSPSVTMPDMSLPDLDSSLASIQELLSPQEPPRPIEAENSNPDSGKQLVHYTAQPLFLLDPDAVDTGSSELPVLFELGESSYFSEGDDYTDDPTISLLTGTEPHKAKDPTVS

[5] = target: Luciferin 4-monooxygenase (Photinus pyralis, UniProt P08659); experiment: Counter Screen for Luciferase-based Assay Positives. [Related pubchem assays: 620, 618, 411 ]
Luciferin 4-monooxygenase, sequence (P08659 whole entry): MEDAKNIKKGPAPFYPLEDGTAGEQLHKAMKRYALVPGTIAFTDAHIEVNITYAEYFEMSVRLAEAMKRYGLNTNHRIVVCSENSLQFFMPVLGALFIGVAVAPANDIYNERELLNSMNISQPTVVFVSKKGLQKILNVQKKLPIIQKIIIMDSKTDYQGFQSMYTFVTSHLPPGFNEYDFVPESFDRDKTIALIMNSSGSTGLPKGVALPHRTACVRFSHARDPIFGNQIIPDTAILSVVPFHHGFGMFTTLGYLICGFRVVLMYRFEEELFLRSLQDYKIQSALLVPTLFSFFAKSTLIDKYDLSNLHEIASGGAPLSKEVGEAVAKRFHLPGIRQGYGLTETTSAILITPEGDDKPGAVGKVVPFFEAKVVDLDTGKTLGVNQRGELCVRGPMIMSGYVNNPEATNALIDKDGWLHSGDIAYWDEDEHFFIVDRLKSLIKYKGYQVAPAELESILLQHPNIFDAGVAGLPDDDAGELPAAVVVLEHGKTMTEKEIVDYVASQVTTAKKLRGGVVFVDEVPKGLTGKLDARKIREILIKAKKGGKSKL

[6] = target: T1, Heat shock factor protein 1; experiment: decrease of HSF1-responsive luciferase luminescence – cell-based, NIH3T3, dose retest, confirmation (AID 2382); type: functional;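 further: NIH3T3 fibroblasts with HSF1-driven luciferase reporter stressed by proteasome inhibitor MG132; luminescence from HSF1-driven luciferase expression after 8 hours of MG132 stress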
[7] = Luminescence-based counterscreen assay for KLF5 inhibitors: dose response cell-based high throughput screening assay to identify cytotoxic compounds using the IEC-6 intestinal epithelial cell line. [Related pubchem assays: 1700 (Primary screen.), 1834 (Confirmation screen.), 1858 (Summary AID.), 1905 (Counterscreen.)]; type: functional
HT-1080 = experiment: HT1080 cell viability loss – fluorescence readout (AID 620); type: functional, cell-based; details: Homo sapiens
[8] = HEK-293T viability loss after treatment – luminescence, T-cell screen hits, cytotoxicity control for TCR NF-kB inhibitor project, dose response (AID 489026); type: functional, cell-based;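 further: cells exposed to compound about 14 hours before the viability readout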
[9] = target: T2, Microphthalmia-associated transcription factor (Homo sapiens, UniProt O75030); experiment: reducers of TRPM1 reporter luminescence, concentration series – cell-based, SK-MEL-5, cherry-picked, set 3, MITF inhibitor project, dose response (AID 493073); type: functional;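 further: SK-MEL-5 melanoma cells with luciferase driven by the MITF target TRPM1 promoter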
T2 sequence (O75030 whole entry): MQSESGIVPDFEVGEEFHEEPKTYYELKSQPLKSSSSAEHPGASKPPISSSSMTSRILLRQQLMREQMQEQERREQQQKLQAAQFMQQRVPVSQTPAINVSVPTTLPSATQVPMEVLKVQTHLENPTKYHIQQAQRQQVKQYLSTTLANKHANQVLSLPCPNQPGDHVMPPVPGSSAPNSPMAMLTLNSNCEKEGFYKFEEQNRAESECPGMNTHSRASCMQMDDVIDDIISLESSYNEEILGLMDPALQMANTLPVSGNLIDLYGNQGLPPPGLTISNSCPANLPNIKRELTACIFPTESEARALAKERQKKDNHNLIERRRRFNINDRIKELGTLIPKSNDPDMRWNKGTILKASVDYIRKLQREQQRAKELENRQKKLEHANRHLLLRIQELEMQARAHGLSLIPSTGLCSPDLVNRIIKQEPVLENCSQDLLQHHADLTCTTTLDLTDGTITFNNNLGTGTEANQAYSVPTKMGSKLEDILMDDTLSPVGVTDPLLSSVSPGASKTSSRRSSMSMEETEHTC

[10] = reduction of Shn3 3'UTR-driven luciferase in osteoblasts – cell-based, Clone20 osteoblasts, firefly luciferase, cherry-picked, dose response (AID 624132); type: functional;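 further: firefly luciferase luminescence from reporter carrying the Shn3 3'UTR in osteoblasts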
[11] = blockers of HIV-1 envelope-mediated cell-cell fusion – cherry-pick, dose response (AID 652057); type: functional, cell-based
[12] = blockers of HIV-1 ZM109 envelope-driven cell-cell fusion – HeLa effector, CEM target cells, luciferase, cherry-pick, dose response (AID 652058); type: functional, cell-based;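 further: luciferase signal from HIV-1 Env mediated cell-cell fusion of effector and target cells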
Paired box protein Pax-8 = Paired box protein Pax-8 (Homo sapiens, UniProt Q06710); experiment: PAX8 transcriptional activity inhibition in RMG-I – RMG-I cells, luciferase, cherry-pick, dose response (AID 687027); type: functional, cell-based;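 further: luciferase reporter driven by Pax8 target thyroperoxidase promoter measured by SteadyGlo luminescence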
Paired box protein Pax-8, sequence (Q06710 whole entry, the tested form may be a part): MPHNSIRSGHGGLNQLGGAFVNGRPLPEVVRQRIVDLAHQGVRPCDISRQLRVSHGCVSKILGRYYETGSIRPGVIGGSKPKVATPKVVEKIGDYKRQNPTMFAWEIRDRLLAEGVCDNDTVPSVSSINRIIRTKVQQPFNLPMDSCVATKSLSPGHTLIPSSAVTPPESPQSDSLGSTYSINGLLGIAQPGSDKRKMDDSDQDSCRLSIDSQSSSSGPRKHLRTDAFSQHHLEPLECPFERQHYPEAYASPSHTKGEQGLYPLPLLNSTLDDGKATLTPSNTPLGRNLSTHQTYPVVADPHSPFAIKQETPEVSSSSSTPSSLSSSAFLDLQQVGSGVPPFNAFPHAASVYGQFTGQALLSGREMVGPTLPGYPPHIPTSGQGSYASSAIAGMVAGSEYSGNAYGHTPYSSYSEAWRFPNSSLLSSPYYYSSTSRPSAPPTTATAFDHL

[13] = off-target signal loss in HeLa-CEM21 co-culture – HeLa F-luc CTL cells, cherry-picked, counter-screen for HIV-1 Env fusion inhibitor project, dose response (AID 652040); type: functional, cell-based;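 further: potency for signal decrease marking cytotoxic or nonspecific inhibition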
[14] = HIV-1 AD8 envelope cell-cell fusion blockers – cherry-pick, dose response (AID 652062); type: functional, cell-based;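 further: luciferase signal from cell-cell fusion driven by HIV-1 clade B AD8 Env; potency is for inhibitors of fusion seen as a drop in luminescence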
[15] = Shn3 3'UTR reporter signal decrease – cell-based, Clone20 osteoblasts, firefly luciferase, cherry-pick, set 2, Schnurri-3 inhibitor project, dose response (AID 720490); type: functional;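 further: actives lower the luminescence signal as inhibitors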
[16] = general cell-killing toxicity readout – plate reader, dry powder samples, cytotoxicity control for PAX8 inhibitor project, dose response (AID 743021); type: functional, cell-based

Lysosomal acid glucosylceramidase, sequence (P04062 whole entry): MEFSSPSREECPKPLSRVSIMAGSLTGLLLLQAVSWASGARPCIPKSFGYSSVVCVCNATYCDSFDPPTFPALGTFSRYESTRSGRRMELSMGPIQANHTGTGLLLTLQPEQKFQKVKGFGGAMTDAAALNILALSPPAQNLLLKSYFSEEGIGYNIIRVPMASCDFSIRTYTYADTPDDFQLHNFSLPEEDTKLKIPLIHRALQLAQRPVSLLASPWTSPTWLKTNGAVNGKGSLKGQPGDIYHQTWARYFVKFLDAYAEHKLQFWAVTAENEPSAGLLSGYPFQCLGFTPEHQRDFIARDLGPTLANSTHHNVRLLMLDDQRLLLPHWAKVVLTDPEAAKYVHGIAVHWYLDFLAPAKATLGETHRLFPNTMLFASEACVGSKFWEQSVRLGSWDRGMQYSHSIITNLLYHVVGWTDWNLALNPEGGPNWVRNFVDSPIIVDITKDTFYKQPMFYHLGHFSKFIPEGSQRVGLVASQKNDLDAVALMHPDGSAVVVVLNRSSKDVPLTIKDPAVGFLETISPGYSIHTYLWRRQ

CCCCSc1nnc(-c2ccc(C)cc2)o1
EC50 [1]: > 50 µM (not active) | IC50 (cells): 39 µM (active)

C=CCc1cccc(C2C(C)CCC3C(=O)N4C(Cc5c([nH]c6ccccc56)C4c4cc(OC)c(OC)c(OC)c4)C(=O)N32)c1 (configuration not stated)
AC50 (Cytochrome P450 2D6): 3.98 µM (inconclusive)

CN(C)c1ccc(NC(=O)/C=C\C(=O)O)cc1
EC50 (Bcl-2-like protein 10): 20.4 µM (active)

COCCCNC(=O)c1cnc2ccc(S(=O)(=O)N3CCc4ccccc43)cc2c1O
EC50 (HEK293): > 35.4 µM (not active) | EC50 [2]: > 35.4 µM (not active) | EC50 [3]: > 35.4 µM (not active) | EC50 [4]: > 260 µM (inactive)

Cc1ccc(C(=O)Nc2cnc3ccccc3c2)cc1
EC50 [5]: > 100 µM (not active) | EC50 [6]: 4.76 µM (active) | IC50 [7]: > 39.8 µM (not active) | EC50 (HT-1080): > 50 µM (not active) | IC50 [8]: > 80 µM (inactive) | AC50 [9]: 1.15 µM (active) | AC50 [10]: 4.04 µM (active) | AC50 [11]: 2.29 µM (active) | AC50 [12]: 13.9 µM (active) | AC50 (Paired box protein Pax-8): 3.57 µM (active) | AC50 [13]: 9.31 µM (active) | AC50 [14]: 4.14 µM (active) | AC50 [15]: 2.3 µM (active) | AC50 [16]: 46 µM (active)

From ChEMBL document CHEMBL1201862, “PubChem BioAssay data set” (2004)
